Test results taken from patent publication US8192962B2, “Processes for detecting toxic substances” (Daikin Industries, Ltd., priority 2001, dated 2012).

Test system: Metabolism protein genes
Assay: DNA chip mRNA expression in yeast, metabolism protein genes (Table 7)
Type: cell-based, Saccharomyces cerevisiae S288C
Description: Yeast (Saccharomyces cerevisiae S288C (α SUC2mal mel gap2 CUP1)) were incubated at 25° C. on YPD medium (yeast extract 1%, polypepton 2%, glucose 2%). One of toxic chemical substances was added to the cells at logarithmic growth phase, and the cells were further incubated for two hours. Cells were cultured without any chemical substance in the same condition, and were used as control. Concentrations of the chemical substances were defined to inhibit the growth of the yeast but not lead to death.
After completion of the incubation, the culture was centrifuged to collect the cells. To the cells, sodium acetate buffer (50 mM sodium acetate, 10 mM EDTA, 1% SDS) was added, and the mixture was shaken at 65° C. for five minutes, followed by returning to room temperature, and obtaining the supernatant, of which the procedures were repeated two times. To the supernatant, ½ amount of a solution of phenol/chloroform was added, and the mixture was centrifuged to give a supernatant, which was added with an equal amount of chloroform, and the mixture was centrifuged to give a supernatant. To the supernatant, an equal amount of isopropanol containing 0.3 M sodium acetate was added, and the mixture was allowed to stand at room temperature for 30 minutes, after which the mixture was centrifuged to give a sediment of the whole RNAs. Seventy % ethanol was added to the sediment, and the mixture was again centrifuged to give a sediment, which was then dried and dissolved in water. mRNA was isolated from the whole RNAs as followings. In view of the fact that a poly A chain is attached to the 3′ terminus of mRNA, a polynucleotide having a poly T structure which was immobilized on the surface of latex beads was used to trap the mRNA, and then the mRNA was washed and eluted with spine column (Oligotex-dT30<Super>mRNA Purification Kit, Takara). Reverse transcription of the mRNA was conducted with a reverse transcriptase (Super Script II Reverse Transcriptase; catalogue No. 18064-014, GibcoBRL) using fluorescence-labeled nucleotides to give cDNAs that were introduced with Cy3-dUTP or Cy5-dUTP during the reverse transcription.
The labeled cDNAs were dissolved in TE buffer (10mM Tris-HCl/1 mM EDTA, pH8.0), and the solution was dropped on the DNA chip containing the whole genes of yeast (DNA Chip Research Inc. Japan) so that the cDNAs were hybridized on the DNA chip at 65° C. for over 12 hours. The fluoresces intensity of the DNA chip was read with a scanner, and the ratio relative to the fluorescence intensity resulting from the absence of chemical substance was estimated as the following, which is shown in Tables 1 to 9: […]

C[S+](C)[O-] [(15), dimethylsulfoxide]
3.9: The level of expressed mRNA in the presence of chemical substance/The level of expressed mRNA in the absence of chemical substance (yeast gene YLR307W)
1.5: level of expressed mRNA in the presence/in the absence of chemical substance (yeast gene YJR077C) | level of expressed mRNA in the presence/in the absence of chemical substance (yeast gene YLR058C) | The level of expressed mRNA in the presence of chemical substance/The level of expressed mRNA in the absence of chemical substance (yeast gene YLR299W) | level of expressed mRNA in the presence/in the absence of chemical substance (yeast gene YOL108C) | level of expressed mRNA in the presence/in the absence of chemical substance (yeast gene YOR002W) | level of expressed mRNA in the presence/in the absence of chemical substance (yeast gene YPL135W)
2.3: The level of expressed mRNA in the presence of chemical substance/The level of expressed mRNA in the absence of chemical substance (yeast gene YNL331C)
6.7: The level of expressed mRNA in the presence of chemical substance/The level of expressed mRNA in the absence of chemical substance (yeast gene YMR296C)
1.3: level of expressed mRNA in the presence/in the absence of chemical substance (yeast gene YMR083W) | The level of expressed mRNA in the presence of chemical substance/The level of expressed mRNA in the absence of chemical substance (yeast gene YNR033W)
2.2: level of expressed mRNA in the presence/in the absence of chemical substance (yeast gene YLR044C)
1.6: level of expressed mRNA in the presence/in the absence of chemical substance (yeast gene YJL167W) | level of expressed mRNA in the presence/in the absence of chemical substance (yeast gene YKL060C) | level of expressed mRNA in the presence/in the absence of chemical substance (yeast gene YLR304C) | The level of expressed mRNA in the presence of chemical substance/The level of expressed mRNA in the absence of chemical substance (yeast gene YNL012W) | The level of expressed mRNA in the presence of chemical substance/The level of expressed mRNA in the absence of chemical substance (yeast gene YNR019W) | level of expressed mRNA in the presence/in the absence of chemical substance (yeast gene YOL086C) | level of expressed mRNA in the presence/in the absence of chemical substance (yeast gene YOR128C) | level of expressed mRNA in the presence/in the absence of chemical substance (yeast gene YOR348C)
2.1: level of expressed mRNA in the presence/in the absence of chemical substance (yeast gene YNL192W)
5.4: The level of expressed mRNA in the presence of chemical substance/The level of expressed mRNA in the absence of chemical substance (yeast gene YNL332W)
3.3: The level of expressed mRNA in the presence of chemical substance/The level of expressed mRNA in the absence of chemical substance (yeast gene YKL104C) | The level of expressed mRNA in the presence of chemical substance/The level of expressed mRNA in the absence of chemical substance (yeast gene YNL106C)
1.9: level of expressed mRNA in the presence/in the absence of chemical substance (yeast gene YOL156W)
1.2: The level of expressed mRNA in the presence of chemical substance/The level of expressed mRNA in the absence of chemical substance (yeast gene YJL172W) | level of expressed mRNA in the presence/in the absence of chemical substance (yeast gene YJL216C) | level of expressed mRNA in the presence/in the absence of chemical substance (yeast gene YKL157W) | level of expressed mRNA in the presence/in the absence of chemical substance (yeast gene YMR015C) | The level of expressed mRNA in the presence of chemical substance/The level of expressed mRNA in the absence of chemical substance (yeast gene YOL153C) | The level of expressed mRNA in the presence of chemical substance/The level of expressed mRNA in the absence of chemical substance (yeast gene YOR136W)
1.4: The level of expressed mRNA in the presence of chemical substance/The level of expressed mRNA in the absence of chemical substance (yeast gene YJL099W) | level of expressed mRNA in the presence/in the absence of chemical substance (yeast gene YNL025C) | The level of expressed mRNA in the presence of chemical substance/The level of expressed mRNA in the absence of chemical substance (yeast gene YOL126C) | level of expressed mRNA in the presence/in the absence of chemical substance (yeast gene YOR103C)
1.7: level of expressed mRNA in the presence/in the absence of chemical substance (yeast gene YKR034W) | level of expressed mRNA in the presence/in the absence of chemical substance (yeast gene YLR089C)
0.7: level of expressed mRNA in the presence/in the absence of chemical substance (yeast gene YLR081W) | level of expressed mRNA in the presence/in the absence of chemical substance (yeast gene YLR372W) | level of expressed mRNA in the presence/in the absence of chemical substance (yeast gene YOL116W) | level of expressed mRNA in the presence/in the absence of chemical substance (yeast gene YOR108W)
37.3: level of expressed mRNA in the presence/in the absence of chemical substance (yeast gene YMR323W)
1.0: level of expressed mRNA in the presence/in the absence of chemical substance (yeast gene YJL121C) | The level of expressed mRNA in the presence of chemical substance/The level of expressed mRNA in the absence of chemical substance (yeast gene YJR137C) | The level of expressed mRNA in the presence of chemical substance/The level of expressed mRNA in the absence of chemical substance (yeast gene YKL035W) | level of expressed mRNA in the presence/in the absence of chemical substance (yeast gene YLR284C) | The level of expressed mRNA in the presence of chemical substance/The level of expressed mRNA in the absence of chemical substance (yeast gene YNR002C) | The level of expressed mRNA in the presence of chemical substance/The level of expressed mRNA in the absence of chemical substance (yeast gene YNR059W) | The level of expressed mRNA in the presence of chemical substance/The level of expressed mRNA in the absence of chemical substance (yeast gene YOL143C) | The level of expressed mRNA in the presence of chemical substance/The level of expressed mRNA in the absence of chemical substance (yeast gene YOR130C) | The level of expressed mRNA in the presence of chemical substance/The level of expressed mRNA in the absence of chemical substance (yeast gene YPL017C) | level of expressed mRNA in the presence/in the absence of chemical substance (yeast gene YPR113W)
5.6: The level of expressed mRNA in the presence of chemical substance/The level of expressed mRNA in the absence of chemical substance (yeast gene YMR189W)
1.1: level of expressed mRNA in the presence/in the absence of chemical substance (yeast gene YJR143C) | The level of expressed mRNA in the presence of chemical substance/The level of expressed mRNA in the absence of chemical substance (yeast gene YKL091C) | The level of expressed mRNA in the presence of chemical substance/The level of expressed mRNA in the absence of chemical substance (yeast gene YKL213C) | The level of expressed mRNA in the presence of chemical substance/The level of expressed mRNA in the absence of chemical substance (yeast gene YML054C) | level of expressed mRNA in the presence/in the absence of chemical substance (yeast gene YOR142W) | level of expressed mRNA in the presence/in the absence of chemical substance (yeast gene YOR178C) | level of expressed mRNA in the presence/in the absence of chemical substance (yeast gene YPL057C)
1.8: The level of expressed mRNA in the presence of chemical substance/The level of expressed mRNA in the absence of chemical substance (yeast gene YKL152C) | level of expressed mRNA in the presence/in the absence of chemical substance (yeast gene YOR085W)
2.4: The level of expressed mRNA in the presence of chemical substance/The level of expressed mRNA in the absence of chemical substance (yeast gene YLR348C) | level of expressed mRNA in the presence/in the absence of chemical substance (yeast gene YLR354C)
0.8: level of expressed mRNA in the presence/in the absence of chemical substance (yeast gene YMR261C) | The level of expressed mRNA in the presence of chemical substance/The level of expressed mRNA in the absence of chemical substance (yeast gene YNL045W) | level of expressed mRNA in the presence/in the absence of chemical substance (yeast gene YOR176W)
0.6: level of expressed mRNA in the presence/in the absence of chemical substance (yeast gene YKL148C) | level of expressed mRNA in the presence/in the absence of chemical substance (yeast gene YML022W) | level of expressed mRNA in the presence/in the absence of chemical substance (yeast gene YMR011W) | The level of expressed mRNA in the presence of chemical substance/The level of expressed mRNA in the absence of chemical substance (yeast gene YMR271C) | level of expressed mRNA in the presence/in the absence of chemical substance (yeast gene YOR251C) | The level of expressed mRNA in the presence of chemical substance/The level of expressed mRNA in the absence of chemical substance (yeast gene YOR336W) | level of expressed mRNA in the presence/in the absence of chemical substance (yeast gene YPL028W) | level of expressed mRNA in the presence/in the absence of chemical substance (yeast gene YPL148C)
2.5: The level of expressed mRNA in the presence of chemical substance/The level of expressed mRNA in the absence of chemical substance (yeast gene YLR180W) | The level of expressed mRNA in the presence of chemical substance/The level of expressed mRNA in the absence of chemical substance (yeast gene YNL104C)
0.9: The level of expressed mRNA in the presence of chemical substance/The level of expressed mRNA in the absence of chemical substance (yeast gene YKL215C) | level of expressed mRNA in the presence/in the absence of chemical substance (yeast gene YLR006C) | level of expressed mRNA in the presence/in the absence of chemical substance (yeast gene YLR056W) | The level of expressed mRNA in the presence of chemical substance/The level of expressed mRNA in the absence of chemical substance (yeast gene YML070W) | The level of expressed mRNA in the presence of chemical substance/The level of expressed mRNA in the absence of chemical substance (yeast gene YMR105C) | level of expressed mRNA in the presence/in the absence of chemical substance (yeast gene YMR205C) | The level of expressed mRNA in the presence of chemical substance/The level of expressed mRNA in the absence of chemical substance (yeast gene YNL037C) | The level of expressed mRNA in the presence of chemical substance/The level of expressed mRNA in the absence of chemical substance (yeast gene YNL231C) | level of expressed mRNA in the presence/in the absence of chemical substance (yeast gene YPR165W) | The level of expressed mRNA in the presence of chemical substance/The level of expressed mRNA in the absence of chemical substance (yeast gene YPR167C) | level of expressed mRNA in the presence/in the absence of chemical substance (yeast gene YPR183W)
2.7: The level of expressed mRNA in the presence of chemical substance/The level of expressed mRNA in the absence of chemical substance (yeast gene YLR300W) | The level of expressed mRNA in the presence of chemical substance/The level of expressed mRNA in the absence of chemical substance (yeast gene YOL058W)
